From ChEMBL document CHEMBL3351547, “Ricinine: a pyridone alkaloid from Ricinus communis that activates the Wnt signaling pathway through casein kinase 1α” (Bioorg Med Chem, 2014)
Active and inactive are the calls of the source. The calls are words filed in the database; no cut-off is given here.

What was measured:
[1] = system: STF/293; experiment: Activation of TCF/beta-catenin transcription in human STF/293 cells assessed as increase in TOP activity by luciferase reporter gene assay; assay type: cell-based
[2] = system: HEK293; experiment: Cytotoxicity against STF reporter expressing HEK293 cells at 10 to 30 uM after 24 hrs by fluorescein diacetate dye based fluorescence assay; assay type: cell-based; conditions: human, hek293, 24 h
[3] = system: HEK293; experiment: Activation of gene transcription in HEK293 cells assessed as increase in FOP at 10 to 30 uM activity by luciferase reporter gene assay; assay type: functional, cell-based; conditions: Homo sapiens
[4] = Activation of Proto-oncogene protein Wnt/beta-catenin pathway in human STF/293 cells assessed as increase in cytosolic beta-catenin expression at 5 to 20 uM after 24 hrs; assay type: cell-based
[5] = Activation of Proto-oncogene protein Wnt/beta-catenin pathway in human STF/293 cells assessed as increase in nuclear beta-catenin expression at 5 to 20 uM after 24 hrs; assay type: cell-based
[6] = target: Casein kinase I isoform alpha (Homo sapiens) (UniProt P48729); experiment: Inhibition of CK1alpha in human STF/293 cells assessed as reduction in beta-catenin Ser33 phosphorylation at 5 to 20 uM after 24 hrs; assay type: cell-based
[7] = target: Casein kinase I isoform alpha (Homo sapiens) (UniProt P48729); experiment: Inhibition of CK1alpha in human STF/293 cells assessed as reduction in beta-catenin Ser37 phosphorylation at 5 to 20 uM after 24 hrs; assay type: cell-based
[8] = target: Casein kinase I isoform alpha (Homo sapiens) (UniProt P48729); experiment: Inhibition of CK1alpha in human STF/293 cells assessed as reduction in beta-catenin Ser45 phosphorylation at 5 to 20 uM after 24 hrs; assay type: cell-based
[9] = target: Casein kinase I isoform alpha (Homo sapiens) (UniProt P48729); experiment: Inhibition of CK1alpha in human STF/293 cells assessed as reduction in beta-catenin Thr41 phosphorylation at 5 to 20 uM after 24 hrs; assay type: cell-based
[10] = system: HEK293; experiment: Effect on GSK3beta expression in STF reporter expressing HEK293 cells at 5 to 20 uM after 24 hrs; assay type: functional, cell-based; conditions: Homo sapiens
[11] = system: HEK293; experiment: Effect on CK1alpha expression in STF reporter expressing HEK293 cells at 5 to 20 uM after 24 hrs; assay type: functional, cell-based; conditions: Homo sapiens
[12] = target: Casein kinase I isoform alpha (Homo sapiens) (UniProt P48729); experiment: Inhibition of CK1alpha in human STF/293 cells assessed as reduction in beta-catenin Ser45 phosphorylation at 20 uM in presence of 200 nM CK1alpha activator pyrvinium after 24 hrs; assay type: cell-based
[13] = target: Casein kinase I isoform alpha (Homo sapiens) (UniProt P48729); experiment: Inhibition of CK1alpha in human STF/293 cells assessed as reduction in beta-catenin Ser33/Ser37/Thr41 phosphorylation at 20 uM in presence of 200 nM CK1alpha activator pyrvinium after 24 hrs; assay type: cell-based
[14] = Activation of Proto-oncogene protein Wnt/beta-catenin pathway in human STF/293 cells assessed as increase in beta-catenin expression at 20 uM in presence of 200 nM CK1alpha activator pyrvinium after 24 hrs; assay type: cell-based
[15] = Activation of Proto-oncogene protein Wnt/beta-catenin pathway in zebra fish assessed as increase in beta-catenin expression at 100 to 300 uM treated from 1.75 hrs post fertilization to 24 hrs post fertilization; conditions: Danio rerio

Chain of Casein kinase I isoform alpha (Homo sapiens) (P48729 2-337 limits assumed): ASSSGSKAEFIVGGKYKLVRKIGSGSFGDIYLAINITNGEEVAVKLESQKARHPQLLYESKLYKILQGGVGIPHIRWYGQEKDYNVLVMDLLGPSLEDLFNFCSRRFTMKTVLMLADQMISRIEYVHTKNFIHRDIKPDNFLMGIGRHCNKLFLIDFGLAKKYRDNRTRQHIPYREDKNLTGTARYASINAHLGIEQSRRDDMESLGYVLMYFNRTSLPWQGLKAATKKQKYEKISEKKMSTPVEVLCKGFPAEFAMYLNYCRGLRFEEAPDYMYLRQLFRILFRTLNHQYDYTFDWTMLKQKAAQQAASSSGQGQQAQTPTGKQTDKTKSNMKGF

| SMILES | Activity [1] | Activity [2] | Activity [3] | Activity [4] | Activity [5] | inhibition [6] | inhibition [7] | inhibition [8] | inhibition [9] | Activity [10] | Activity [11] | inhibition [12] | inhibition [13] | Activity [14] | Activity [15] |
| --- | --- | --- | --- | --- | --- | --- | --- | --- | --- | --- | --- | --- | --- | --- | --- |
| CC[C@H](CC[C@@H](C)[C@H]1CC[C@H]2[C@@H]3CC=C4C[C@@H](O[C@@H]5O[C@H](CO)[C@@H](O)[C@H](O)[C@H]5O)CC[C@]4(C)[C@H]3CC[C@]12C)C(C)C [SITOGLUSIDE] | Dose-dependent effect | Non-toxic |  |  |  |  |  |  |  |  |  |  |  |  |  |
| CC[C@H](CC[C@@H](C)[C@H]1CC[C@H]2[C@@H]3C(=O)C=C4C[C@@H](O)CC[C@]4(C)[C@H]3CC[C@]12C)C(C)C | Dose-dependent effect | Non-toxic | inactive |  |  |  |  |  |  |  |  |  |  |  |  |
| COc1ccn(C)c(=O)c1C#N [RICININE] | Dose-dependent effect | Non-toxic | inactive | Active | Active | Active | Active | Active | Active | inactive | inactive | Active | Active | Active | Dose-dependent effect |
| C=C(C)[C@@H]1CC[C@]2(C)CC[C@]3(C)[C@H](CC[C@@H]4[C@@]5(C)CC[C@H](O)C(C)(C)[C@@H]5CC[C@]43C)[C@@H]12 [LUPEOL] | Dose-dependent effect | Non-toxic |  |  |  |  |  |  |  |  |  |  |  |  |  |
